{
  "source": "patent US20220000971A1",
  "about": "“METHODS AND COMPOUNDS FOR TARGETING SORTILIN RECEPTORS AND INHIBITING VASCULOGENIC MIMICRY” (TRANSFERT PLUS, S.E.C., priority 2018, published 2022)",
  "key": {"[1]": {"system": "SK-Hep-1 hepatocellular carcinoma cells", "conditions": "Curcumin 3-30 μM, dose-dependent; cited from earlier work"}, "[2]": {"system": "ES-2 ovarian cancer cells", "experiment": "In vitro vasculogenic mimicry, Matrigel tube formation assay (ES-2)", "type": "cell-based, human", "conditions": "for effect on vasculogenic mimicry inhibition caused by KBB106: competitor added to KBB106", "protocol": "In vitro vasculogenic mimicry of cancer cells was assessed using a Matrigel tube formation assay. In brief, each well of a 96-well plate was pre-coated with Matrigel. ES-2 ovarian cancer or MDA-MB-231 TNBC cell suspensions were seeded on top of Matrigel. 3D-tubular structures were analyzed and quantified using Wimasis Analysis software."}, "Sortilin receptor [3]": {"target": "T1, Sortilin receptor (Homo sapiens, UniProt Q99523)", "T1 construct": "endogenous in cells; host or cells: ES-2 human ovarian cancer cells", "T1 sequence (Q99523 78-831)": "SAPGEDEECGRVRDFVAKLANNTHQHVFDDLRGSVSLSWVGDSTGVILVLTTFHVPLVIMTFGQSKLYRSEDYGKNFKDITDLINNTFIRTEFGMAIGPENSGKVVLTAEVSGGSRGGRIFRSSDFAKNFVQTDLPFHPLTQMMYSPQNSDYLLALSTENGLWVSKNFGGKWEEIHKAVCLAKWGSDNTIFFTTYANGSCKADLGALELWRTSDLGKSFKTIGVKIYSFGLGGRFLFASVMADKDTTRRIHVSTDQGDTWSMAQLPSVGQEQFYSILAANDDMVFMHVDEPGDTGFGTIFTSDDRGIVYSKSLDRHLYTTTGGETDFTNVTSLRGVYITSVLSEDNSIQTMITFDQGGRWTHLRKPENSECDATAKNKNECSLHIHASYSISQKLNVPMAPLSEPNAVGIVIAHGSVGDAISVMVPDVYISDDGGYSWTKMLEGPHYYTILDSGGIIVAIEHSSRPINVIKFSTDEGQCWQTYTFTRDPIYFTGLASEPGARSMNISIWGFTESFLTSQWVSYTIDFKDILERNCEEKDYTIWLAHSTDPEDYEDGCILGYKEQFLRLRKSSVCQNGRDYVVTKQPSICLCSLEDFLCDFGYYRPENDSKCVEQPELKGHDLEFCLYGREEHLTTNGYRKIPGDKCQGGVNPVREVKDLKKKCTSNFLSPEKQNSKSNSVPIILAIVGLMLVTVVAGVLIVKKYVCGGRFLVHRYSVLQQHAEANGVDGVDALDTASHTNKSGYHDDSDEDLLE", "experiment": "Cell surface binding assay with anti-Sortilin-Alexa488", "conditions": "antibody 1 μg/ml, 30 minutes; ES-2 cells; competitor present", "protocol": "Labeling of anti-Sortilin antibody was performed with the Alexa Fluor 488 protein labeling kit from Invitrogen according to manufacturer's instructions."}, "MDA-MB-231 cells": {"system": "MDA-MB-231 cells", "experiment": "Cell death / apoptosis (Annexin V-FITC/PI)", "type": "cell-based", "conditions": "SORT1 ligand competition", "protocol": "MDA-MB-231 cells treated for 5 hours with control (vehicle) or with increasing concentrations of Docetaxel or DoceKA. Cells were then harvested and the rate of apoptosis was determined following staining with Annexin V-FITC and propidium iodide (PI). Cells were analyzed by flow cytometry."}, "Sortilin receptor [4]": {"target": "T2, Sortilin receptor (human, UniProt Q99523 78-831)", "T2 construct": "whole, on cells; also called SORT1", "T2 sequence (looked up)": "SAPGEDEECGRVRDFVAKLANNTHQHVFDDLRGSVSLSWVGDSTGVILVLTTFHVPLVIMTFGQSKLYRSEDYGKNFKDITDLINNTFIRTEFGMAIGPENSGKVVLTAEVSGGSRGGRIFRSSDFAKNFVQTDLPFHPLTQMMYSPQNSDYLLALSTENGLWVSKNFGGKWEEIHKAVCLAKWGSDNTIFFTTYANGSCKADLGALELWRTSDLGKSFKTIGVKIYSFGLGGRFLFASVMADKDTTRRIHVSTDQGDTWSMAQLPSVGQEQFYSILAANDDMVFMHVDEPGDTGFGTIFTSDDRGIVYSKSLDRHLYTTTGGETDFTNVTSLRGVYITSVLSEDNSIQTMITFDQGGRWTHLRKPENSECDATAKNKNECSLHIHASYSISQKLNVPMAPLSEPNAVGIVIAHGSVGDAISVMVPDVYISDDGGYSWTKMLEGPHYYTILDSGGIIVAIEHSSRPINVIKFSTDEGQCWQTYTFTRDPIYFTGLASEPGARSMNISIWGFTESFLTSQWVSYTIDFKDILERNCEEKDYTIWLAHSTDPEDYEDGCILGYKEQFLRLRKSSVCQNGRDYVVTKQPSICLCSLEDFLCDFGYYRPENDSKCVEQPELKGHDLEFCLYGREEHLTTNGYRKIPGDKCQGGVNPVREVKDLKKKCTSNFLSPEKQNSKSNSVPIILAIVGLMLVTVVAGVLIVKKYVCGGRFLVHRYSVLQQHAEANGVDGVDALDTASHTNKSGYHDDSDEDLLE", "experiment": "inferred from the vasculogenic mimicry assay of ES-2 cells, excess KBP106 against KBB106"}},
  "note": "Where no end group is shown, it is not given here. [ ]: non-standard residue; d: D form. Nle = CCCC[C@H](N)C(=O)O",
  "data": [
    {"molecule": "COc1cc(/C=C/C(=O)CC(=O)/C=C/c2ccc(O)c(OC)c2)ccc1O", "note": "[Curcumin, diferuloylmethane]", "values": [
      {"measurement": "inhibition of tube formation", "setting": "[1]", "value": "18-92%"}
    ]},
    {"molecule": "Acetyl-GVRAKAGVRN(Nle)FKSESY (Ac-GVRAKAGVRN[Nle]FKSESY) [KBP106]", "values": [
      {"measurement": "effect on vasculogenic mimicry inhibition caused by KBB106", "setting": "[2]; ES-2", "value": "prevents vascukogenic mimicry inhibition by KBB106"},
      {"measurement": "effect of peptide alone on vasculogenic mimicry", "setting": "[2]; up to 50 μM, ES-2, 24 hours", "value": "no significant effect"},
      {"measurement": "effect on binding of anti-Sortilin-Alexa488 at the cell surface", "setting": "Sortilin receptor [3]", "value": "strongly reduced the binding"}
    ]},
    {"molecule": "Acetyl-GVRAKAGVRN(Nle)FKSESYC(aldoxorubicin) [AldoxKA]", "values": [
      {"measurement": "inhibition of 3D-tubular structures (vasculogenic mimicry)", "setting": "[2]; ES-2 seeded on Matrigel, increasing concentrations", "value": "inhibited"}
    ]},
    {"molecule": "Acetyl-YKSLRRKAPRWDAPLRDPALRQLL (Ac-YKSLRRKAPRWDAPLRDPALRQLL) [KBP201]", "values": [
      {"measurement": "effect on binding of anti-Sortilin-Alexa488 at the cell surface", "setting": "Sortilin receptor [3]", "value": "strongly reduced the binding"}
    ]},
    {"molecule": "progranulin: Sortilin ligand [reference compound]", "values": [
      {"measurement": "effect of Sortilin ligand alone on vasculogenic mimicry", "setting": "[2]; ES-2, 12 hours", "value": "do not effect vasculogenic mimicry"},
      {"measurement": "effect on vasculogenic mimicry inhibition caused by KBB106", "setting": "[2]; ES-2", "value": "reverses vasculogenic mimicry inhibition"},
      {"measurement": "effect on binding of anti-Sortilin-Alexa488 at the cell surface", "setting": "Sortilin receptor [3]", "value": "inhibited"},
      {"measurement": "effect on apoptotic and anti-migratory effects of DoceKA", "setting": "MDA-MB-231 cells", "value": "reversed"}
    ]},
    {"molecule": "Ac-GVRAKAGVRN[Nle]FKSESY (also called Katana peptide; KA-peptide)", "note": "[KBP-106: Acetyl-GVRAKAGVRN(Nle)FKSESY]", "values": [
      {"measurement": "binding result", "setting": "Sortilin receptor [4]", "value": "binds"}
    ]}
  ]
}
